Patent EP0672415A1, “Organopathy preventing, curing or ameliorating agent” (priority 1994, dated 1995)
Values joined by “and” are separate entries in the source; they are usually repeats but may differ in a detail not shown here. Equal entries are not always repeated. Where two headings read alike, the source gives them in different places.

What was measured:
[1] = system: rat liver transplantation; settings: livers ischemic for 60 min, untreated group 0%, cited from earlier work
[2] = Solubility in water and physiological saline; assay type: physicochemical
Description: The compound (I) soluble in both water and physiological saline was dissolved in physiological saline to prepare a solution of the compound (I) (1.5 mg/ml) prior to use.
(§1) (1-Ethyl-2-[N-(2-methoxy)benzoyl-N-[(2R)-2-methoxy-3-( 4-octadecylcarbamoyloxy)piperidinocarbonyloxypopoxy]carbonyl]aminomethylpyridinium chloride, molecular weight 860.5) was supplied in powder form by Eisai Co.,Ltd. (Japan). It is soluble in water and saline, and a 1.5 mg/ml solution was prepared with saline immediately before use.

Slc:ICR mice = assay: Acute toxicity test, single intravenous administration, mice; assay type: in vivo, Mouse; settings: for Acute toxicity (LD₅₀): Mouse, Intravenous Injection, single administration
Description: (§2) A single administration toxicity test was carried out by effecting intravenous injections (medium: physiological saline) to a group consisting of five male and five female 7 to 8-weeks-old Slc:SD rats and a group consisting of five male and five female 7 to 8-weeks-old Slc:ICR mice.

[3] = system: porcine liver transplantation model; assay: Porcine liver transplantation model (8 hr cold preservation, sympatric transplantation); assay type: in vivo, swine
Description: A model was employed in which swine each weighing 30 to 40 kg were used, the livers were extirpated therefrom and preserved at low temperature for 8 hr, and sympatric liver transplantation was carried out. More specifically, the swine were starved for 24 hr, and randomly divided into two groups. Group 1 consisted of 9 donors and 9 recipients, which were treated with the above compound of the present invention. In the surgical operation of the donors, the compound (I) was added to the perfusate and the preservation fluid (1 mg/ℓ). Further, the compound (I) was continuously intravenously administered to the recipients (0.3 mg/kg) and added, in the surgical operation thereof, to the washing fluid for washing away the preservation fluid from the interior of each of the transplant livers (1 mg/ℓ).
Group 2 as a control group not treated with the compound of the present invention consisted of 9 donors and 9 recipients, for which the same continuous intravenous administration was carried out with the use of the same fluids as for Group 1, except that the compound (I) was not added thereto. A University of Wisconsin (hereinafter referred to as "UW") fluid prepared in a simplified manner was used for the perfusion and preservation of the transplant livers. The fluid was one obtained by omitting hydroxyethylstarch from the composition of the UW fluid customarily employed in the preservation of livers.
For each of the donors, premedication with ketamine (10 mg/kg) was conducted, and the auricular vein was cannulated to initiate the administration of physiological saline. Ketamine (5 mg/kg, i.v.) and pancronium (0.2 mg/kg, i.v.) were administered, and thereafter the airway was secured. The donor under surgical operation was kept anesthetized by inhalation of 3 ℓ of oxygen, 4 ℓ of laughing gas and 1.5% ethrane.
Heparin (10,000 IU) was intravenously injected, and thereafter the subrenal ventral aorta was cannulated. […] The gallbladder was dissected, and washed with physiological saline. The resultant liver was taken out, and immersed in a UW fluid bath. […] The transplant liver was preserved at 4°C for 8 hr.
Each of the recipient swine was also anesthetized in the same manner as described above with respect to the surgical operation of the donors. The right carotid artery and the right subclavian vein were cannulated for blood pressure monitoring and blood sampling and for intravenous injection, respectively. The abdomen was cut open, and the liver was detached and removed. During the ahepatic period, the blood from the portal vein was passively bypassed through a shunt tube inserted into the portal vein and the right external jugular vein. […] After the completion of the anastomosis with the portal vein, the transplant liver was reperfused with the blood from the portal vein.
The bile duct was drained outside the body through a biliary external fistula tube.
Just before the anastomosis with the portal vein, the transplant liver was perfused with lactated Ringer's solution (500 ml) containing dextrose (5 wt.%), mannitol (1.25 wt.%) and sodium bicarbonate (0.21 wt.%) to thereby remove the preservation fluid. The washing fluid was held at 30 to 37°C. Within 3 min of the hot washing, the transplant liver was reperfused.
During the ahepatic period starting with the initiation of the surgical operation, physiological saline (500 ml) containing dextrose (2.5 wt.%) was administered through the auricular vein. For the Group 1, the compound (I) (0.3 mg/kg) was mixed in the saline solution. During the ahepatic period, 500 to 750 ml of physiological saline containing sodium bicarbonate (0.21 wt.%) was rapidly injected in order to prevent blood pressure lowering. Sodium bicarbonate (1.05 g) and calcium gluconate (0.1 g) were intravenously administered prior to the reperfusion of the transplant liver. During the surgical operation, no transfusion was conducted, and a total of 1.5 to 2.0 ℓ of infusion solution was administered. […]

Large-White pigs = assay: Orthotopic liver transplantation following 8 hour cold preservation in pigs (second description); assay type: in vivo
Description: Orthotopic liver transplantations following 8 hour cold preservation were performed. Large-White pigs weighing 35-40 Kg were used after 24 hours starvation. Pigs were randomly divided into 2 groups. In Group 1, the PAF antagonist treatment group, consisting of 9 donors and 9 recipients, the PAF antagonist the compound (I) was given in the solutions (1mg/L) for flush-out and preservation at donor operation. It was also administered into recipients (0.3mg/Kg body weight) as an infusion and given in the solution (1mg/L) for rinsing before reperfusion of the graft (RPF) at recipient operation. Group 2, the untreated control group, consisted of 9 donors and 9 recipients that received the same solutions or intravenous infusion only without the compound (I). The solutions for flush-out and preservation of the graft liver were simplified UW solution in which hydroxyethyl starch was omitted from the original formulation of UW solution described for liver preservation, according to the reports showing that hydroxyethyl starch is not an essential component in UW solution.
Following premedication with ketamine (10mg/Kg i.m.), the ear vein was cannulated and saline perfusion was started. After injection of ketamine (5mg/Kg i.v.) and pancuronium (0.2mg/Kg i.v.), the animals were […]. Anesthesia was maintained by inhalation with 3L oxygen, 4L nitrous oxide and 1.5% ethranne. […] Following intravenous injection of heparine (10,000IU), the subrenal abdominal aorta was cannulated. […] The gallbladder was incised and washed with saline. The liver was harvested and dipped in 4üÄ UW solution bath.
The recipient pigs were anesthesized as described in donor operation. The right carotid artery and the right subclavian vein were then cannulated for blood pressure monitoring and blood sampling and for intravenous fluid infusion, respectively. After laparotomy, the liver was dissected free and removed. During anhepatic period, the portal blood was passively shunted by a tube between the portal vein and the right external jugular vein. […] The graft liver was reperfused with the portal blood after completion of the portal vein anastomosis. The bile duct was drained by external tube fistula. Immediately before the anastomosis of the portal vein, to remove the preservation solution, the graft liver was flushed with 500ml of Ringers lactate containig dextrase (5g%), mannitol (1.25g%) and sodium bicarbonate (0.21g%) as previously described. […] In our operations, the duration between the warm rinsing and RPF was less than 3 miniutes by using the cuff technique in portal vein anastomosis.
Intraoperative fluid infusion was as follows; 500ml of saline containing dextrose (2.5g%) was infused through the ear vein between the begining of the operation and the anhepatic period. In Group 1, The compound (I) (0.3mg/Kg) was mixed in this solution. During the anhepatic period, 500-750ml of saline containing sodium bicarbonate (0.21g%) was rapidly infused to prevent hypotension. Prior to RPF, sodiumu bicarbonate (1.05g) and calcium gluconate (0.1g) were injected intravenously. As a total, 1.5-2L of the fluid was infused during operation without any blood transfusion. Postoperatively, 0.5-1.0L of 5% dextrose solution was infused for the first 12 hours. Sodium bicarbonate was given to correct metabolic acidosis when necessary. No immunosuppressant was administered.
as §1
AKBR was measured at the time of cannulation in the right carotid artery (before), and at 1, 2, 4 and 12 hours after RPF. […]

human platelets = settings: reported value; read-out: IC50 value, inhibition of aggregation of human platelets induced by PAF; cited from earlier work
Slc:SD rats = assay: Acute toxicity test, single intravenous administration, rats; assay type: in vivo, Rat; settings: for Acute toxicity (LD₅₀): Rat, Intravenous Injection, single administration
Description: as §2

[4] = Group 1, 4 hr after the reperfusion (p<0.05)

In the case of `COC1=C(OC)C(=O)C(C/C=C(\C)CC/C=C(\C)CC/C=C(\C)CC/C=C(\C)CC/C=C(\C)CC/C=C(\C)CC/C=C(\C)CC/C=C(\C)CC/C=C(\C)CCC=C(C)C)=C(C)C1=O` [coenzyme Q₁₀], the one-week survival rate ([1]; 10 mg/kg intravenously to the donor rats prior to the operation) is listed as “about 50%” and the one-week survival rate ([1]; 10 mg/kg intravenously to the recipient rats prior to the operation) is listed as “about 50%”.
In the case of `CCCCCCCCCCCCCCCCCCNC(=O)OC1CCN(C(=O)OCC(COC(=O)N(Cc2cccc[n+]2CC)C(=O)c2ccccc2OC)OC)CC1.[Cl-]` (stereo not drawn) [compound (I), 1-ethyl-2-[N-(2-methoxy)benzoyl-N-{2-methoxy-3-(4-octadecylcarbamoyloxy)piperidinocarbonyloxypropoxy}carbonyl]aminomethylpyridinium chloride], the solubility [2] is reported as “soluble”, the “Acute toxicity (LD₅₀)” value (Slc:ICR mice; Female) is reported as 50.0 mg/kg and the “Acute toxicity (LD₅₀)” value (Slc:ICR mice; Male) is reported as 46.8 mg/kg. For the same compound, the “LD₅₀ values relative to the clinical dose in intravenous injection” value (Slc:ICR mice; mouse LD₅₀ values of Table 1) was ≥ 50 times, the hematocrit values ([3]; Group 1 (both groups alike), course after the reperfusion) was “rapidly increased 2 hr after the reperfusion, and gradually decreased thereafter” and the “survival of all of the 9 swine” value ([3]; Group 1 (treated group)) was “at least 4 days”. The “12-hr or longer survinal rate” value ([3]; Group 1, 9/9, Group 2 (untreated) 56% (5/9)) was 100%, the “lactate level of arterial blood” value ([3]; Group 1, 2 hr after the reperfusion) was 9.9 ± 1.0 mmol/L and the platelet count ([3]; Group 1, 2 hr later) was 309.8 ± 21.6 ×10³/µℓ. The leukocyte count ([3]; Group 1, 2 hr later (p<0.01 vs Group 2)) was 14.3 ± 1.8 ×10³/µℓ, the GOT level [3, 4] was 712 ± 97 U/ℓ and the GPT level [3, 4] was 65 ± 4 U/ℓ. The “lactate level of arterial blood” value [3, 4] was 6.2 ± 1.1 mmol/L, the “lactate level of arterial blood” value ([3]; Group 1, 12 hr after the reperfusion) was “recovered to the initial level” and the AKBR ([3]; Group 1, 12 hr after the reperfusion, significantly higher than Group 2 (p<0.05)) was “recovered to the normal condition level”. For the same compound, the platelet count ([3]; Group 1, 12 hr later) was 227.8 ± 13.4 ×10³/µℓ, the AKBR ([3]; Group 1, during 4 hr after the reperfusion, compared with Group 2) was “only slightly higher than that of the Group 2” and the leukocyte count ([3]; Group 1, prior value) was 11.5 ± 1.1 ×10³/µℓ. The platelet count ([3]; Group 1, prior value) was 294.4 ± 19.8 ×10³/µℓ, the “Histologic study (optical microscope): hepatocyte necroses, stagnation of hepatosinusoidal inflammatory cells, vacuolar degeneration” value ([3]; Group 1, reperfused liver 1 hr after the reperfusion) was “little observed” and the “glycogen content of the hepatocytes (staining)” value ([3]; Group 1 versus Group 2, 1 hr after the reperfusion) was “the glycogen content of the hepatocytes in the Group 2 was smaller than that in the Group 1”. The “Period of Survival” value ([3]; individual recipient swine of Group 1 (treated): 1 mg/ℓ in perfusate, preservation fluid and washing fluid, 0.3 mg/kg i.v. to recipients, 0.3 mg/kg) was 7 days or more (4×) and 4 days and 5 days and 6 days (2×) and 7 days, the hematocrit values (Large-White pigs; Group 1 (both groups alike), course after RPF) was “increased markedly at 2 hours after RPF, and then gradually decreased” and the “survival of all the 9 pigs” value (Large-White pigs; Group 1 (treated)) was “more than 4 days”. For the same compound, the platelet count (Large-White pigs; Group 1, at 2 hours after RPF) was “slightly increased at 2 hours”, the “lactate level in arterial blood” value (Large-White pigs; Group 1, at 12 hours after RPF) was “restored to the primary levels” and the “Histological examination by light microscopy (HE stain): necrosis of hepatocytes, exudate of inflammatory cells, microvesicular changes” value (Large-White pigs; Group 1, reperfused liver at 1 hour after RPF) was “rarely seen”. For the same compound, the “content of glycogen in hepatocytes (PAS staining)” value (Large-White pigs; Group 1 versus Group 2, at 1 hour after RPF) was “lesser content of glycogen in hepatocytes in Group 2 than in Group 1”, the AKBR (Large-White pigs; Group 1 versus Group 2, at 4 hours after RPF) was “tendency to be higher in Group 1 than in Group 2, though not significant” and the Survival (Large-White pigs; individual pigs of Group 1 (n=9) (treated): 1mg/L in flush-out, preservation and rinsing solutions, 0.3mg/Kg infusion to recipients, 0.3 mg/kg) was >7 POD (4×) and 4 POD and 5 POD and 6 POD (2×) and 7 POD. The IC50 (human platelets) was 0.66 nM, the “Acute toxicity (LD₅₀)” value (Slc:SD rats; Female) was 22.8 mg/kg and the “Acute toxicity (LD₅₀)” value (Slc:SD rats; Male) was 18.2 mg/kg. For the same compound, the “LD₅₀ values relative to the clinical dose in intravenous injection” value (Slc:SD rats; rat LD₅₀ values of Table 1) was ≥ 50 times.
